# ChEMBL document CHEMBL5321208, “The effect of side chain variations on quinazoline-pyrimidine G-quadruplex DNA ligands” (Eur J Med Chem, 2023)
# The source made the active and inactive calls. The calls are words filed in the database; no cut-off is given here.
# Tested on: Quadruplex DNA
# Experiment: Binding affinity to FAM/TAMRA-labelled antiparallel Bom17 G4 DNA (unknown origin) assessed as thermal stabilization at 1 to 8 uM measured at 10 to 95 degreeC by FRET analysis
# Type: nucleic-acid assay
# Conditions: dose 1-8 µM
row,SMILES,Activity
1,Cc1cc(NCCCN2CCCCC2)nc(Nc2nc(C)c3ccc4c(c3n2)CCCC4)n1,inactive
2,Cc1cc(NCCCN2CCCC2)nc(Nc2nc(C)c3ccc4c(c3n2)CCC4)n1,inactive
3,Cc1cc(NCCCN2CCN(C)CC2)nc(Nc2nc(C)c3ccc4c(c3n2)CCC4)n1,inactive

# Tested on: Quadruplex DNA
# Experiment: Binding affinity to FAM/TAMRA-labelled parallel c-MYC Pu24T G4 DNA (unknown origin) assessed as thermal stabilization in the presence of 15 equivalents of double stranded DNA by FRET competition assay
# Type: nucleic-acid assay
# Conditions: not given
row,SMILES,Activity
1,Cc1cc(NCCCN2CCCCC2)nc(Nc2nc(C)c3ccc4c(c3n2)CCCC4)n1,Active
2,Cc1cc(NCCCN2CCCC2)nc(Nc2nc(C)c3ccc4c(c3n2)CCC4)n1,Active
3,Cc1cc(NCCCN2CCN(C)CC2)nc(Nc2nc(C)c3ccc4c(c3n2)CCC4)n1,Active

# Target: Quadruplex DNA
# Experiment: Binding affinity to 5'-Cy5-labelled parallel c-MYC Pu24T G4 DNA (unknown origin) assessed as dissociation constant by MST analysis
# Type: nucleic-acid assay
# Conditions: not given
row,SMILES,Kd [nM]
1,Cc1cc(NCCCN2CCCCC2)nc(Nc2nc(C)c3ccc4c(c3n2)CCCC4)n1,175
2,Cc1cc(NCCCN2CCCC2)nc(Nc2nc(C)c3ccc4c(c3n2)CCC4)n1,275
3,Cc1cc(NCCCN2CCN(C)CC2)nc(Nc2nc(C)c3ccc4c(c3n2)CCC4)n1,265

# Tested on: Quadruplex DNA
# Experiment: Binding affinity to FAM/TAMRA-labelled parallel c-MYC Pu24T G4 DNA (unknown origin) assessed as thermal stabilization by measuring change in melting temperature at 2 uM in the presence of 100 equivalents of double stranded DNA by FRET competition assay
# Type: nucleic-acid assay
# Conditions: not given
row,SMILES,ΔTm [°C]
1,Cc1cc(NCCCN2CCCCC2)nc(Nc2nc(C)c3ccc4c(c3n2)CCCC4)n1,7
2,Cc1cc(NCCCN2CCCC2)nc(Nc2nc(C)c3ccc4c(c3n2)CCC4)n1,7
3,Cc1cc(NCCCN2CCN(C)CC2)nc(Nc2nc(C)c3ccc4c(c3n2)CCC4)n1,7

# Tested on: Quadruplex DNA
# Experiment: Binding affinity to FAM/TAMRA-labelled c-MYC Pu22 G4 DNA (unknown origin) assessed as thermal stabilization at 1 to 8 uM measured at 10 to 95 degreeC by FRET analysis
# Type: nucleic-acid assay
# Conditions: dose 1-8 µM
row,SMILES,Activity
1,Cc1cc(NCCCN2CCCCC2)nc(Nc2nc(C)c3ccc4c(c3n2)CCCC4)n1,Active
2,Cc1cc(NCCCN2CCCC2)nc(Nc2nc(C)c3ccc4c(c3n2)CCC4)n1,Active
3,Cc1cc(NCCCN2CCN(C)CC2)nc(Nc2nc(C)c3ccc4c(c3n2)CCC4)n1,Active

# Tested on: Quadruplex DNA
# Experiment: Binding affinity to FAM/TAMRA-labelled c-KIT2 G4 DNA (unknown origin) assessed as thermal stabilization at 1 to 8 uM measured at 10 to 95 degreeC by FRET analysis
# Type: nucleic-acid assay
# Conditions: dose 1-8 µM
row,SMILES,Activity
1,Cc1cc(NCCCN2CCCCC2)nc(Nc2nc(C)c3ccc4c(c3n2)CCCC4)n1,Active
2,Cc1cc(NCCCN2CCCC2)nc(Nc2nc(C)c3ccc4c(c3n2)CCC4)n1,Active
3,Cc1cc(NCCCN2CCN(C)CC2)nc(Nc2nc(C)c3ccc4c(c3n2)CCC4)n1,Active

# Tested on: Quadruplex DNA
# Experiment: Binding affinity to FAM/TAMRA-labelled parallel KRAS G4 DNA (unknown origin) assessed as thermal stabilization in the presence of 15 equivalents of double stranded DNA by FRET competition assay
# Type: nucleic-acid assay
# Conditions: not given
row,SMILES,Activity
1,Cc1cc(NCCCN2CCCCC2)nc(Nc2nc(C)c3ccc4c(c3n2)CCCC4)n1,Active
2,Cc1cc(NCCCN2CCCC2)nc(Nc2nc(C)c3ccc4c(c3n2)CCC4)n1,Active
3,Cc1cc(NCCCN2CCN(C)CC2)nc(Nc2nc(C)c3ccc4c(c3n2)CCC4)n1,Active

# Tested on: dsDNA
# Experiment: Binding affinity to double stranded DNA (unknown origin) assessed as thermal stabilization at 1 to 8 uM measured at 10 to 95 degreeC by FRET analysis
# Type: nucleic-acid assay
# Conditions: dose 1-8 µM
row,SMILES,Activity
1,Cc1cc(NCCCN2CCCCC2)nc(Nc2nc(C)c3ccc4c(c3n2)CCCC4)n1,inactive
2,Cc1cc(NCCCN2CCCC2)nc(Nc2nc(C)c3ccc4c(c3n2)CCC4)n1,inactive
3,Cc1cc(NCCCN2CCN(C)CC2)nc(Nc2nc(C)c3ccc4c(c3n2)CCC4)n1,inactive

# Tested on: Quadruplex DNA
# Experiment: Binding affinity to parallel c-MYC Pu24T G4 DNA (unknown origin) assessed as change in topology at 5 uM by CD spectra analysis
# Type: nucleic-acid assay
# Conditions: not given
row,SMILES,Activity
1,Cc1cc(NCCCN2CCCCC2)nc(Nc2nc(C)c3ccc4c(c3n2)CCCC4)n1,inactive
2,Cc1cc(NCCCN2CCCC2)nc(Nc2nc(C)c3ccc4c(c3n2)CCC4)n1,inactive
3,Cc1cc(NCCCN2CCN(C)CC2)nc(Nc2nc(C)c3ccc4c(c3n2)CCC4)n1,inactive

# Tested on: Quadruplex DNA
# Experiment: Binding affinity to FAM/TAMRA-labelled parallel KRAS G4 DNA (unknown origin) assessed as thermal stabilization by measuring change in melting temperature at 2 uM in the presence of 100 equivalents of double stranded DNA by FRET competition assay
# Type: nucleic-acid assay
# Conditions: not given
row,SMILES,ΔTm [°C]
1,Cc1cc(NCCCN2CCCCC2)nc(Nc2nc(C)c3ccc4c(c3n2)CCCC4)n1,10
2,Cc1cc(NCCCN2CCCC2)nc(Nc2nc(C)c3ccc4c(c3n2)CCC4)n1,10
3,Cc1cc(NCCCN2CCN(C)CC2)nc(Nc2nc(C)c3ccc4c(c3n2)CCC4)n1,10

# Tested on: not listed separately
# Experiment: Cytotoxicity against wildtype C57BL/6J mouse cancer activated fibroblast cells assessed as inhibition of cell growth incubated for 5 days by resazurin dye based fluorescence microscopic analysis
# Type: toxicity
# Conditions: not given
row,SMILES,IC50 at 5 days [nM]
1,Cc1cc(NCCCN2CCCC2)nc(Nc2nc(C)c3ccc4c(c3n2)CCC4)n1,2520
2,Cc1cc(NCCCN2CCN(C)CC2)nc(Nc2nc(C)c3ccc4c(c3n2)CCC4)n1,264

# Tested on: Quadruplex DNA
# Experiment: Binding affinity to FAM/TAMRA-labelled 21g G4 DNA (unknown origin) assessed as thermal stabilization at 1 to 8 uM measured at 10 to 95 degreeC by FRET analysis
# Type: nucleic-acid assay
# Conditions: dose 1-8 µM
row,SMILES,Activity
1,Cc1cc(NCCCN2CCCCC2)nc(Nc2nc(C)c3ccc4c(c3n2)CCCC4)n1,Active
2,Cc1cc(NCCCN2CCCC2)nc(Nc2nc(C)c3ccc4c(c3n2)CCC4)n1,Active
3,Cc1cc(NCCCN2CCN(C)CC2)nc(Nc2nc(C)c3ccc4c(c3n2)CCC4)n1,Active

# Tested on: not listed separately
# Experiment: Antitumor activity against KPC mouse pancreatic cancer organoid expressing lentiviral modified GFP co-cultured with WT C57BL/6J mouse pancreatic stellate cells expressing mKate2 assessed as inhibition of cell growth incubated for 5 days by resazurin dye based fluorescence microscopic analysis
# Type: functional, tissue-based
# Conditions: 120 h
row,SMILES,IC50 [nM]
1,Cc1cc(NCCCN2CCCC2)nc(Nc2nc(C)c3ccc4c(c3n2)CCC4)n1,161
2,Cc1cc(NCCCN2CCN(C)CC2)nc(Nc2nc(C)c3ccc4c(c3n2)CCC4)n1,211

# Tested on: Quadruplex DNA
# Experiment: Binding affinity to parallel c-MYC Pu24T G4 DNA (unknown origin) assessed as thermal stabilization by measuring change in melting temperature at 5 uM measured at 1:1 DNA to ligand ratio by CD spectra analysis
# Type: nucleic-acid assay
# Conditions: not given
row,SMILES,ΔTm [°C]
1,Cc1cc(NCCCN2CCCCC2)nc(Nc2nc(C)c3ccc4c(c3n2)CCCC4)n1,5
2,Cc1cc(NCCCN2CCCC2)nc(Nc2nc(C)c3ccc4c(c3n2)CCC4)n1,5
3,Cc1cc(NCCCN2CCN(C)CC2)nc(Nc2nc(C)c3ccc4c(c3n2)CCC4)n1,5

# Tested on: Quadruplex DNA
# Experiment: Binding affinity to FAM/TAMRA-labelled antiparallel TBA G4 DNA (unknown origin) assessed as thermal stabilization at 1 to 8 uM measured at 10 to 95 degreeC by FRET analysis
# Type: nucleic-acid assay
# Conditions: dose 1-8 µM
row,SMILES,Activity
1,Cc1cc(NCCCN2CCCCC2)nc(Nc2nc(C)c3ccc4c(c3n2)CCCC4)n1,inactive
2,Cc1cc(NCCCN2CCCC2)nc(Nc2nc(C)c3ccc4c(c3n2)CCC4)n1,inactive
3,Cc1cc(NCCCN2CCN(C)CC2)nc(Nc2nc(C)c3ccc4c(c3n2)CCC4)n1,inactive

# Tested on: Quadruplex DNA
# Experiment: Binding affinity to FAM/TAMRA-labelled parallel 25ceb G4 DNA (unknown origin) assessed as thermal stabilization at 1 to 8 uM measured at 10 to 95 degreeC by FRET analysis
# Type: nucleic-acid assay
# Conditions: dose 1-8 µM
row,SMILES,Activity
1,Cc1cc(NCCCN2CCCCC2)nc(Nc2nc(C)c3ccc4c(c3n2)CCCC4)n1,inactive
2,Cc1cc(NCCCN2CCCC2)nc(Nc2nc(C)c3ccc4c(c3n2)CCC4)n1,inactive
3,Cc1cc(NCCCN2CCN(C)CC2)nc(Nc2nc(C)c3ccc4c(c3n2)CCC4)n1,inactive

# Tested on: Quadruplex DNA
# Experiment: Binding affinity to FAM/TAMRA-labelled parallel c-MYC Pu24T G4 DNA (unknown origin) assessed as thermal stabilization at 1 to 8 uM measured at 10 to 95 degreeC by FRET analysis
# Type: nucleic-acid assay
# Conditions: dose 1-8 µM
row,SMILES,Activity
1,Cc1cc(NCCCN2CCCCC2)nc(Nc2nc(C)c3ccc4c(c3n2)CCCC4)n1,Active
2,Cc1cc(NCCCN2CCCC2)nc(Nc2nc(C)c3ccc4c(c3n2)CCC4)n1,Active
3,Cc1cc(NCCCN2CCN(C)CC2)nc(Nc2nc(C)c3ccc4c(c3n2)CCC4)n1,Active

# Tested on: Quadruplex DNA
# Experiment: Binding affinity to FAM/TAMRA-labelled c-KIT1 G4 DNA (unknown origin) assessed as thermal stabilization at 1 to 8 uM measured at 10 to 95 degreeC by FRET analysis
# Type: nucleic-acid assay
# Conditions: dose 1-8 µM
row,SMILES,Activity
1,Cc1cc(NCCCN2CCCCC2)nc(Nc2nc(C)c3ccc4c(c3n2)CCCC4)n1,Active
2,Cc1cc(NCCCN2CCCC2)nc(Nc2nc(C)c3ccc4c(c3n2)CCC4)n1,Active
3,Cc1cc(NCCCN2CCN(C)CC2)nc(Nc2nc(C)c3ccc4c(c3n2)CCC4)n1,Active
